IC50 data for 25 molecules are collected here from patent US9670204B2, “Compounds and pharmaceutical compositions thereof for the treatment of inflammatory disorders” (Galapagos NV, priority 2013, dated 2017).

The target in this test is hENPP2 (UniProtKB/SwissProt Q13822) (Homo sapiens (Human), UniProt Q13822). In words: hENPP2 biochemical assay, LPC as substrate. As to conditions: LPC (palmitoyl 16:0) as substrate. Here is the method: The principle of the assay consists in quantifying the released choline with an enzymatic method using choline oxidase and peroxidase. Choline oxydation by choline oxydase releases betaine and peroxide. The latter is quantified in presence of HRP that converts the peroxide detection agent TOOS and 4-aminoantipyrine into quinoneimine dye. The appearance of quinoneimine dye is measured spectrophotometrically at 555 nm and is proportional to the amount of choline released by ENPP2. Inhibition of ENPP2 will result in a decrease of the signal.
Compound IC50 values are determined in a hENPP2 (UniProtKB/SwissProt Sequence ref Q13822) biochemical assay using LPC as substrate.
The enzyme is diluted in 50 mM Tris-HCl pH 8.5, 500 mM NaCl, 5 mM KCl, 10 mM CaCl2, 0.1% fatty acid free BSA in a total volume of 10 μL. the reaction is started by the addition of 10 μL of 150 μM LPC (palmitoyl 16:0) diluted in the same buffer as described above and the mixture is incubated at 37° C. for 30 min. The reaction is terminated and choline quantified by the addition of a 25 μL of a mixture containing 0.6 U/mL of choline oxidase, 0.6 U/mL of peroxydase, 1.8 mM TOOS, 1.2 mM amino-antipyrine, 20 mM EGTA (stop-developer solution) diluted in the buffer described above. […] is read on the Envision after an incubation of 30 min at room temperature (Excitation 555 nm, excitation light=70%).

For `CCc1nc2ccc(N3CCN(CC(=O)N4CC(CO)C4)CC3)cn2c1N(C)c1nc(-c2ccc(F)cc2)cs1` [Compound 34, 2-(4-(2-ethyl-3-((4-(4-fluorophenyl)thiazol-2-yl)(methyl)amino)imidazo[1,2-a]pyridin-6-yl)piperazin-1-yl)-1-(3-(hydroxymethyl)azetidin-1-yl)ethanone], the IC50 (usually the midpoint of a concentration-inhibition curve) is 100 to 500 nM.

For the molecule `CCc1nc2ccc(N3CCN(CC(=O)N4CC(CO)C4)CC3)cn2c1N(C)c1nc(-c2ccc(F)cc2)c(CO)s1` [Compound 146, 2-(4-(2-ethyl-3-((4-(4-fluorophenyl)-5-(hydroxymethyl)thiazol-2-yl)(methyl)amino)imidazo[1,2-a]pyridin-6-yl)piperazin-1-yl)-1-(3-(hydroxymethyl)azetidin-1-yl)ethanone], the IC50 fell in the range of 500 to 1000 nM.

For `CCc1nc2ccc(C3CCN(C(=O)CN(C)C)CC3)cn2c1N(C)c1nc(-c2ccc(F)cc2)cs1` [Compound 129, 2-(dimethylamino)-1-(4-(2-ethyl-3-((4-(4-fluorophenyl)thiazol-2-yl)(methyl)amino)imidazo[1,2-a]pyridin-6-yl)piperidin-1-yl)ethanone], the IC50 lay in the range of 100 to 500 nM. As for `CN(C)C(=O)CN1CCC(c2ccc3nc(CCC(N)=O)c(N(C)c4nc(-c5ccc(F)cc5)cs4)n3c2)CC1` [Compound 176, 3-(6-(1-(2-(dimethylamino)-2-oxoethyl)piperidin-4-yl)-3-((4-(4-fluorophenyl)thiazol-2-yl)(methyl)amino)imidazo[1,2-a]pyridin-2-yl)propanamide], the figure is above 1000 nM; as for `CCc1nc2ccc(C3=CCN(S(C)(=O)=O)CC3)cn2c1N(C)c1nc(-c2ccc(C(F)(F)F)cc2)cs1` [Compound 193, N-(2-ethyl-6-(1-(methylsulfonyl)-1,2,3,6-tetrahydropyridin-4-yl)imidazo[1,2-a]pyridin-3-yl)-N-methyl-4-(4-(trifluoromethyl)phenyl) thiazol-2-amine], above 1000 nM. As for `CCc1nc2ccc(N3CCN(CC(=O)N4CCC4)CC3)cn2c1N(C)c1nc(-c2ccc(F)cc2)cs1` [Compound 30, 1-(azetidin-1-yl)-2-(4-(2-ethyl-3-((4-(4-fluorophenyl)thiazol-2-yl)(methyl)amino)imidazo[1,2-a]pyridin-6 yl)piperazin-1-yl)ethanone], the figure is 0.01 to 100 nM. Then `CCc1nc2ccc(N3CCN(C(=O)C4CC(=O)N(Cc5ccccc5)C4)CC3)cn2c1N(C)c1nc(-c2ccc(F)cc2)cs1` (stereo not shown) [Compound 205, 1-Benzyl-4-[4-(2-ethyl-3-{[4-(4-fluoro-phenyl)-thiazol-2-yl]-methyl-amino}-imidazo[1,2-a]pyridin-6-yl)-piperazine-1-carbonyl]-pyrrolidin-2-one], with 500 to 1000 nM.

The molecule `CCc1nc2ccc(N3CCN(CC(=O)N4CC(CO)C4)CC3)cn2c1N(C)c1nc(-c2ccc(F)cc2)c(C#N)s1` [Compound 139, 2-((2-ethyl-6-(4-(2-(3-(hydroxymethyl)azetidin-1-yl)-2-oxoethyl)piperazin-1-yl)imidazo[1,2-a]pyridin-3-yl)(methyl)amino)-4-(4-fluorophenyl) thiazole-5-carbonitrile] returned an IC50 of 0.01 to 100 nM.

Consider `CCc1nc2ccc(C3CCN(C(=O)CN4CC(F)(F)C4)CC3)cn2c1N(C)c1nc(-c2ccc(F)cc2)cs1` [Compound 131], for which the IC50 lay in the range of 100 to 500 nM. As for `CCc1nc2ccc(C3=CCN(CC(=O)N(C)C)CC3)cn2c1N(C)c1nc(-c2ccc(F)cc2)ns1` [Compound 190, 2-(4-(2-ethyl-3-((3-(4-fluorophenyl)-1,2,4-thiadiazol-5-yl)(methyl)amino)imidazo[1,2-a]pyridin-6-yl)-5,6-dihydropyridin-1(2H)-yl)-N,N-dimethylacetamide], the figure is above 1000 nM.

As for `CCc1nc2ccc(C3CCN(S(C)(=O)=O)CC3)cn2c1N(C)c1nc(-c2ccc(F)c(F)c2)cs1` [Compound 83, 4-(3,4-difluorophenyl)-N-(2-ethyl-6-(1-(methylsulfonyl)piperidin-4-yl)imidazo [1,2-a]pyridin-3-yl)-N-methylthiazol-2-amine], the IC50 was above 1000 nM. As for `CCc1nc2ccc(C3CCN(CC(=O)NCCCO)CC3)cn2c1N(C)c1nc(-c2ccc(F)cc2)cs1` [Compound 123, 2-(4-(2-ethyl-3-((4-(4-fluorophenyl)thiazol-2-yl)(methyl)amino)imidazo[1,2-a]pyridin-6-yl)piperidin-1-yl)-N-(3-hydroxypropyl)acetamide], the figure is above 1000 nM; as for `CCc1nc2ccc(C3CCN(CC(=O)N4CCCC4)CC3)cn2c1N(C)c1nc(-c2ccc(F)cc2)c(CO)s1` [Compound 151, 2-(4-(2-ethyl-3-((4-(4-fluorophenyl)-5-(hydroxymethyl)thiazol-2-yl)(methyl)amino)imidazo[1,2-a]pyridin-6-yl)piperidin-1-yl)-1-(pyrrolidin-1-yl)ethanone], 500 to 1000 nM; as for `CCc1nc2ccc(C3CCN(S(C)(=O)=O)CC3)cn2c1N(C)c1nc(-c2ccc(F)cc2)c(C(=O)OC)s1` [Compound 104, methyl 2-((2-ethyl-6-(1-(methylsulfonyl)piperidin-4-yl)imidazo [1,2-a]pyridin-3-yl)(methyl)amino)-4-(4-fluorophenyl)thiazole-5-carboxylate], above 1000 nM. Then `CCc1nc2ccc(C3CCN(S(C)(=O)=O)CC3)cn2c1N(C)c1nc(-c2ccc(C(F)(F)F)cc2)c(CO)s1` [Compound 150, (2-((2-ethyl-6-(1-(methylsulfonyl)piperidin-4-yl)imidazo [1,2-a]pyridin-3-yl)(methyl)amino)-4-(4-(trifluoromethyl)phenyl)thiazol-5-yl) methanol], with 500 to 1000 nM; and `CCOC(=O)C(=O)N1CCN(c2ccc3nc(CC)c(N(C)c4nc(-c5ccc(F)cc5)cs4)n3c2)CC1` [Compound 228, ethyl 2-(4-(2-ethyl-3-((4-(4-fluorophenyl)thiazol-2-yl)(methyl)amino)imidazo[1,2-a]pyridin-6-yl)piperazin-1-yl)-2-oxoacetate], with above 1000 nM. In the case of `CCc1nc2ccc(C3CCN(CC4COC(=O)N4)CC3)cn2c1N(C)c1nc(-c2ccc(F)cc2)cs1` (stereo not shown) [Compound 198, 4-((4-(2-ethyl-3-((4-(4-fluorophenyl)thiazol-2-yl)(methyl)amino)imidazo[1,2-a]pyridin-6-yl)piperidin-1-yl)methyl)oxazolidin-2-one], the IC50 was above 1000 nM. In turn, `CCc1nc2ccc(N3CCN(CC(=O)N4CC(F)C4)CC3)cn2c1N(C)c1nc(-c2ccc(F)cc2C#N)cs1` [Compound 164, 2-(2-((2-ethyl-6-(4-(2-(3-fluoroazetidin-1-yl)-2-oxoethyl)piperazin-1-yl)imidazo[1,2-a]pyridin-3-yl)(methyl)amino)thiazol-4-yl)-5-fluorobenzonitrile] returned an IC50 of 0.01 to 100 nM. As for `CCc1nc2ccc(N3CCN(CC(=O)N4CCCC4)CC3)cn2c1N(C)c1nc(-c2ccc(F)cc2)cs1` [Compound 31, 2-(4-(2-ethyl-3-((4-(4-fluorophenyl)thiazol-2-yl)(methyl)amino)imidazo[1,2-a]pyridin-6-yl)piperazin-1-yl)-1-(pyrrolidin-1-yl)ethanone], the figure is 0.01 to 100 nM; as for `CCc1nc2ccc(C3CCN(CC(=O)N(C)CC#N)CC3)cn2c1N(C)c1nc(-c2ccc(F)cc2)cs1` [Compound 121, N-(cyanomethyl)-2-(4-(2-ethyl-3-((4-(4-fluorophenyl)thiazol-2-yl)(methyl)amino)imidazo[1,2-a]pyridin-6-yl)piperidin-1-yl)-N-methylacetamide], 500 to 1000 nM.

The molecule `CCc1nc2ccc(N3CCN(CC(=O)NC)CC3)cn2c1N(C)c1nc(-c2ccc(F)cc2C#N)cs1` [Compound 169, 2-(4-(3-((4-(2-cyano-4-fluorophenyl)thiazol-2-yl)(methyl)amino)-2-ethylimidazo[1,2-a]pyridin-6-yl)piperazin-1-yl)-N-methylacetamide] had an IC50 of 0.01 to 100 nM. Then `CCc1nc2ccc(C3CCN(S(C)(=O)=O)CC3)cn2c1N(C)c1nc(-c2ccc(OC(F)(F)F)cc2)c(CO)s1` [Compound 148, (2-((2-ethyl-6-(1-(methylsulfonyl)piperidin-4-yl)imidazo [1,2-a]pyridin-3-yl)(methyl)amino)-4-(4-(trifluoromethoxy)phenyl)thiazol-5-yl) methanol], with above 1000 nM. As for `CCc1nc2ccc(C3CCN(CC(=O)N4CCC(CO)C4)CC3)cn2c1N(C)c1nc(-c2ccc(F)cc2)cs1` (stereo not shown) [Compound 117, 2-(4-(2-ethyl-3-((4-(4-fluorophenyl)thiazol-2-yl)(methyl)amino)imidazo[1,2-a]pyridin-6-yl)piperidin-1-yl)-1-(3-(hydroxymethyl)pyrrolidin-1-yl)ethanone], the figure is 100 to 500 nM; as for `CCc1nc2ccc(C3CCN(CC(=O)N4CCC(O)C4)CC3)cn2c1N(C)c1nc(-c2ccc(F)cc2)cs1` (stereo not shown) [Compound 223, 2-(4-(2-ethyl-3-((4-(4-fluorophenyl)thiazol-2-yl)(methyl)amino)imidazo[1,2-a]pyridin-6-yl)piperidin-1-yl)-1-(3-hydroxypyrrolidin-1-yl)ethanone], 100 to 500 nM; as for `CCc1nc2ccc(C3CCN(C(=O)CN(C)C)CC3)cn2c1N(C)c1nc(-c2ccc(F)cc2)c(CO)s1` [Compound 153, 2-(dimethylamino)-1-(4-(2-ethyl-3-((4-(4-fluorophenyl)-5-(hydroxymethyl)thiazol-2-yl)(methyl)amino)imidazo[1,2-a]pyridin-6-yl)piperidin-1-yl) ethanone], 500 to 1000 nM.
